Data from US9655884B2, “Antiparasitic use of isoxazoline compounds” (Intervet Inc., priority 2013, dated 2017).

Test system: adult fleas (C. felis)
Experiment: In vitro membrane feeding exposure to assess flea reproduction
Parameters: species or system Ctenocephalides felis
Conditions: for Pupal Development Control / Larval Emergence: eggs of parent fleas fed 0.09 ng/mL in blood
Procedure: A membrane feeding method [Wade S E, Georgi J R. Survival and reproduction of artificially fed cat fleas, Ctenocephalides felis Bouché (Siphonaptera: Pulicidae). J Med Entomol 1988, 25: 186-190.] was modified to assess the impact of fluralaner exposure on flea reproduction. Defibrinated sheep blood was prepared in a series of dilutions with fluralaner to obtain concentrations between 50.0 and 0.09 ng/mL. These test solutions were prepared twice and each preparation was tested in duplicate resulting in a total of 4 replicates per concentration, along with a fluralaner negative solvent control (a solvent concentration equivalent to that of the highest concentrated fluralaner test solution) and an untreated control.
Unfed adult fleas (C. felis; 20 males and 20 females) were placed into a plastic unit that was then closed with a gauze lid. A grid inside the plastic unit divided the unit into 2 chambers, an upper chamber for flea feeding and a lower chamber for egg collection. Test or control blood preparations (2 ml) were placed in an artificial membrane closed glass tube that was then placed on the plastic unit as the food source. Feeding units were incubated (38° C. and 60% RH) for 10 days. Test and negative control blood preparations were freshly prepared and exchanged (on days 1, 3, 5, and 8) to permit continuous flea feeding. Fleas were transferred into fresh plastic units on Days 5 and 8 to facilitate egg collection. Collected eggs were mixed with flea nourishment medium and incubated (28° C. and 80% RH) in darkness for 22 (±3) days to enable flea development. Parameters recorded were flea survival, oviposition control, egg hatchability, pupa control, flea-emergence control and reproduction inhibition.

[1] = 0.09 ng/mL in blood, exposure day 3
[2] = 0.09 ng/mL in blood, exposure day 4
[3] = 0.09 ng/mL in blood, exposure day 5
[4] = 0.09 ng/mL in blood, exposure day 8
[5] = 0.09 ng/mL in blood, exposure day 9
[6] = 0.09 ng/mL in blood, exposure day 10
[7] = 0.19 ng/mL in blood, exposure day 3
[8] = 0.19 ng/mL in blood, exposure day 4
[9] = 0.19 ng/mL in blood, exposure day 5
[10] = 0.19 ng/mL in blood, exposure day 8
[11] = 0.19 ng/mL in blood, exposure day 9
[12] = 0.19 ng/mL in blood, exposure day 10
[13] = 0.39 ng/mL in blood, exposure day 3
[14] = 0.39 ng/mL in blood, exposure day 4
[15] = 0.39 ng/mL in blood, exposure day 5
[16] = 0.39 ng/mL in blood, exposure day 8
[17] = 0.39 ng/mL in blood, exposure day 9
[18] = 0.39 ng/mL in blood, exposure day 10
[19] = 0.78 ng/mL in blood, exposure day 3
[20] = 0.78 ng/mL in blood, exposure day 4
[21] = 0.78 ng/mL in blood, exposure day 5
[22] = 0.78 ng/mL in blood, exposure day 8
[23] = 0.78 ng/mL in blood, exposure day 9
[24] = 0.78 ng/mL in blood, exposure day 10
[25] = 1.56 ng/mL in blood, exposure day 3
[26] = 1.56 ng/mL in blood, exposure day 4
[27] = 1.56 ng/mL in blood, exposure day 5
[28] = 1.56 ng/mL in blood, exposure day 8
[29] = 1.56 ng/mL in blood, exposure day 9
[30] = 1.56 ng/mL in blood, exposure day 10
[31] = 3.13 ng/mL in blood, exposure day 3
[32] = 3.13 ng/mL in blood, exposure day 4
[33] = 3.13 ng/mL in blood, exposure day 5
[34] = 3.13 ng/mL in blood, exposure day 8
[35] = 3.13 ng/mL in blood, exposure day 9
[36] = 3.13 ng/mL in blood, exposure day 10
[37] = 6.25 ng/mL in blood, exposure day 3
[38] = 6.25 ng/mL in blood, exposure day 4
[39] = 6.25 ng/mL in blood, exposure day 5
[40] = 6.25 ng/mL in blood, exposure day 8
[41] = 6.25 ng/mL in blood, exposure day 9
[42] = 6.25 ng/mL in blood, exposure day 10
[43] = 12.5 ng/mL in blood, exposure day 3
[44] = 12.5 ng/mL in blood, exposure day 4
[45] = 12.5 ng/mL in blood, exposure day 5
[46] = 12.5 ng/mL in blood, exposure day 8
[47] = 12.5 ng/mL in blood, exposure day 9
[48] = 12.5 ng/mL in blood, exposure day 10
[49] = 25.0 ng/mL in blood, exposure day 3
[50] = 25.0 ng/mL in blood, exposure day 4
[51] = 25.0 ng/mL in blood, exposure day 5
[52] = 50.0 ng/mL in blood, exposure day 3
[53] = 50.0 ng/mL in blood, exposure day 4
[54] = 50.0 ng/mL in blood, exposure day 5

Cc1cc(C2=NOC(c3cc(Cl)cc(Cl)c3)(C(F)(F)F)C2)ccc1C(=O)NCC(=O)NCC(F)(F)F (stereo not shown) [fluralaner, 4-[5-(3,5-Dichlorophenyl)-5-trifluoromethyl-4,5-dihydroisoxazol-3-yl]-2-methyl-N-[(2,2,2-trifluoro-ethylcarbamoyl)-methyl]-benzamide]
Oviposition Control (0.09 ng/mL in blood, arithmetic mean of exposure days): 7.9%
Flea Survival (0.09 ng/mL in blood, exposure day 2): 100%
Flea Survival [1]: 100%
Oviposition Control [1]: 0%
Flea Survival [2]: 100%
Oviposition Control [2]: 11.3%
Flea Survival [3]: 100%
Oviposition Control [3]: 10.9%
Flea Survival [4]: 100%
Oviposition Control [4]: 16.7%
Flea Survival [5]: 100%
Oviposition Control [5]: 0.3%
Flea Survival [6]: 100%
Oviposition Control [6]: 8.1%
Oviposition Control (0.19 ng/mL in blood, arithmetic mean of exposure days): 9.2%
Flea Survival (0.19 ng/mL in blood, exposure day 2): 100%
Flea Survival [7]: 100%
Oviposition Control [7]: 0%
Flea Survival [8]: 100%
Oviposition Control [8]: 5.1%
Flea Survival [9]: 100%
Oviposition Control [9]: 21.0%
Flea Survival [10]: 100%
Oviposition Control [10]: 15.1%
Flea Survival [11]: 100%
Oviposition Control [11]: 0%
Flea Survival [12]: 100%
Oviposition Control [12]: 13.9%
Oviposition Control (0.39 ng/mL in blood, arithmetic mean of exposure days): 16.1%
Flea Survival (0.39 ng/mL in blood, exposure day 2): 100%
Flea Survival [13]: 100%
Oviposition Control [13]: 6.72%
Flea Survival [14]: 100%
Oviposition Control [14]: 22.8%
Flea Survival [15]: 100%
Oviposition Control [15]: 23.2%
Flea Survival [16]: 100%
Oviposition Control [16]: 23.8%
Flea Survival [17]: 100%
Oviposition Control [17]: 0%
Flea Survival [18]: 98.7%
Oviposition Control [18]: 20.3%
Oviposition Control (0.78 ng/mL in blood, arithmetic mean of exposure days): 9.4%
Flea Survival (0.78 ng/mL in blood, exposure day 2): 100%
Flea Survival [19]: 100%
Oviposition Control [19]: 8.7%
Flea Survival [20]: 100%
Oviposition Control [20]: 3.0%
Flea Survival [21]: 100%
Oviposition Control [21]: 13.8%
Flea Survival [22]: 100%
Oviposition Control [22]: 12.5%
Flea Survival [23]: 100%
Oviposition Control [23]: 0%
Flea Survival [24]: 100%
Oviposition Control [24]: 18.5%
Oviposition Control (1.56 ng/mL in blood, arithmetic mean of exposure days): 21.1%
Flea Survival (1.56 ng/mL in blood, exposure day 2): 100%
Flea Survival [25]: 100%
Oviposition Control [25]: 0%
Flea Survival [26]: 99.4%
Oviposition Control [26]: 0%
Flea Survival [27]: 99.1%
Oviposition Control [27]: 17.3%
Flea Survival [28]: 93.9%
Oviposition Control [28]: 49.8%
Flea Survival [29]: 92.9%
Oviposition Control [29]: 30.1%
Flea Survival [30]: 90.3%
Oviposition Control [30]: 29.2%
Oviposition Control (3.13 ng/mL in blood, arithmetic mean of exposure days): 50.5%
Flea Survival (3.13 ng/mL in blood, exposure day 2): 100%
Flea Survival [31]: 100%
Oviposition Control [31]: 32.0%
Flea Survival [32]: 98.7%
Oviposition Control [32]: 35.7%
Flea Survival [33]: 97.8%
Oviposition Control [33]: 43.1%
Flea Survival [34]: 83.1%
Oviposition Control [34]: 70.5%
Flea Survival [35]: 79.5%
Oviposition Control [35]: 59.9%
Flea Survival [36]: 78.8%
Oviposition Control [36]: 62.0%
Oviposition Control (6.25 ng/mL in blood, arithmetic mean of exposure days): 80.6%
Flea Survival (6.25 ng/mL in blood, exposure day 2): 100%
Flea Survival [37]: 100%
Oviposition Control [37]: 82.6%
Flea Survival [38]: 97.5%
Oviposition Control [38]: 85.9%
Flea Survival [39]: 92.8%
Oviposition Control [39]: 81.3%
Flea Survival [40]: 85.0%
Oviposition Control [40]: 79.9%
Flea Survival [41]: 73.1%
Oviposition Control [41]: 67.5%
Flea Survival [42]: 69.7%
Oviposition Control [42]: 86.4%
Oviposition Control (12.5 ng/mL in blood, arithmetic mean of exposure days): 99.6%
Flea Survival (12.5 ng/mL in blood, exposure day 2): 100%
Flea Survival [43]: 100%
Oviposition Control [43]: 99.6%
Flea Survival [44]: 67.5%
Oviposition Control [44]: 100%
Flea Survival [45]: 38.9%
Oviposition Control [45]: 100%
Flea Survival [46]: 21.7%
Oviposition Control [46]: 98.9%
Flea Survival [47]: 17.9%
Oviposition Control [47]: 99.1%
Flea Survival [48]: 12.3%
Oviposition Control [48]: 100%
Oviposition Control (25.0 ng/mL in blood, arithmetic mean of exposure days): 100%
Flea Survival (25.0 ng/mL in blood, exposure day 2): 90.6%
Flea Survival [49]: 67.5%
Oviposition Control [49]: 100%
Flea Survival [50]: 31.9%
Oviposition Control [50]: 100%
Flea Survival [51]: 11.3%
Oviposition Control [51]: 100%
Flea Survival (25.0 ng/mL in blood, exposure day 8): 0%
Flea Survival (25.0 ng/mL in blood, exposure day 9): 0%
Flea Survival (25.0 ng/mL in blood, exposure day 10): 0%
Oviposition Control (50.0 ng/mL in blood, arithmetic mean of exposure days): 100%
Flea Survival (50.0 ng/mL in blood, exposure day 2): 78.1%
Flea Survival [52]: 20.0%
Oviposition Control [52]: 100%
Flea Survival [53]: 8.7%
Oviposition Control [53]: 100%
Flea Survival [54]: 1.2%
Oviposition Control [54]: 100%
Flea Survival (50.0 ng/mL in blood, exposure day 8): 0%
Flea Survival (50.0 ng/mL in blood, exposure day 9): 0%
Flea Survival (50.0 ng/mL in blood, exposure day 10): 0%
Pupal Development Control (arithmetic mean of exposure days): 4.0%
Larval Emergence (exposure day 3): yes
Pupal Development Control (exposure day 3): 9.1%
Larval Emergence (exposure day 4): yes
Pupal Development Control (exposure day 4): 4.5%
Larval Emergence (exposure day 5): yes
Pupal Development Control (exposure day 5): 1.4%
Larval Emergence (exposure day 8): yes
